In the kinase profiling compilation of Christmann-Franck et al. (2016):
“And” between values parts separate entries of the source, which are not always exact repeats. Equal values may be shown once.

Columns and labels:
Test in all cases: radiometric filter-binding kinase assay, Kinase HotSpot
Settings in all cases: compound 0.5 µM; ATP 10 µM
LYN (human) = LYN (human) (UniProt P07948)
EPHA6 (human) = EPHA6 (human) (UniProt Q9UF33)
PDGFRB (human) = PDGFRB (human) (UniProt P09619)
MYLK (human) = MYLK (human) (UniProt Q15746)
EPHB3 (human) = EPHB3 (human) (UniProt P54753)
STK4 (human) = STK4 (human) (UniProt Q13043)
RPS6KB2 (human) = RPS6KB2 (human) (UniProt Q9UBS0)
CSNK1D (human) = CSNK1D (human) (UniProt P48730)
Chain of CSNK1D (human) (P48730 whole entry, looked up): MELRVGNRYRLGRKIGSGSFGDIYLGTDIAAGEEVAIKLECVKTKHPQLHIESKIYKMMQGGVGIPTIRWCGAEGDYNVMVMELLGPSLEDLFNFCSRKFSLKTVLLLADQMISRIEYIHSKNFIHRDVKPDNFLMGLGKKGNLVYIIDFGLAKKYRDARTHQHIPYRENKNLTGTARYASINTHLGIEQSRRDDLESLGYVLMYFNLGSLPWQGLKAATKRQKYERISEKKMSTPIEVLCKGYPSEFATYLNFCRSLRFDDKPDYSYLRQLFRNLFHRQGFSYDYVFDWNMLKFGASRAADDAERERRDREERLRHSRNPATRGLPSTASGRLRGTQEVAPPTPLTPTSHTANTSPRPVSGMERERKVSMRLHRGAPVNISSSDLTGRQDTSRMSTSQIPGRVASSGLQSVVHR

CDC42BPB (human) = CDC42BPB (human) (UniProt Q9Y5S2)
EPHA5 (human) = EPHA5 (human) (UniProt P54756)
Chain of EPHA5 (human) (P54756 whole entry, looked up): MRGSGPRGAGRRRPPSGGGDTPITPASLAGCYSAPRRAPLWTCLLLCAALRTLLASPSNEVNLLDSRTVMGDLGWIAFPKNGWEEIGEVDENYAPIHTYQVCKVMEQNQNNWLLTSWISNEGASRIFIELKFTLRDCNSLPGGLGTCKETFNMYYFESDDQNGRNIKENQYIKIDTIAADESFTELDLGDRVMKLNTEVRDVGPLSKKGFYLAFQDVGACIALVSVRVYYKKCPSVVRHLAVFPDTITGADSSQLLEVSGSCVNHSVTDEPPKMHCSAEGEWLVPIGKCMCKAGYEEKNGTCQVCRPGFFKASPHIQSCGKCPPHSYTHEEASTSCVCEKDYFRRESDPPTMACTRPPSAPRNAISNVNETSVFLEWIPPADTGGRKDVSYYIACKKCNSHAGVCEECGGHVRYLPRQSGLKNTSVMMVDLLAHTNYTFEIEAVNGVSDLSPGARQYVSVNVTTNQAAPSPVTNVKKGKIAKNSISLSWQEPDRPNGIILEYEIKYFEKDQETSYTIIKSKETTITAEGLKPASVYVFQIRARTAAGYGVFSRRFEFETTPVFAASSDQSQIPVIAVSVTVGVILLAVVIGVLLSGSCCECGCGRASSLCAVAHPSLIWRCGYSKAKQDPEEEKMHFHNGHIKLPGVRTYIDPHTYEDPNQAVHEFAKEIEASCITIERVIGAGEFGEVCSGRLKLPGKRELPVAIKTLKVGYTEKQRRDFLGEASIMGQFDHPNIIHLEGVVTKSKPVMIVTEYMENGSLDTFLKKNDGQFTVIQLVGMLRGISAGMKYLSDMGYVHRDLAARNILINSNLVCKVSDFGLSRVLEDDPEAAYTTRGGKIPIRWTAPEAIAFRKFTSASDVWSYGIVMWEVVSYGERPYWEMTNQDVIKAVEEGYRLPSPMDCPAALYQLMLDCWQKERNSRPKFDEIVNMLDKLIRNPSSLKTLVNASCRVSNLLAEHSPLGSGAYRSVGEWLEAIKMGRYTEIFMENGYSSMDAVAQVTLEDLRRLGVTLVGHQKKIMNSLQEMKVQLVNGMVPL

IGF1R (human) = IGF1R (human) (UniProt P08069)
HIPK2 (human) = HIPK2 (human) (UniProt Q9H2X6)
NTRK1 (human) = NTRK1 (human) (UniProt P04629)
STK24 (human) = STK24 (human) (UniProt Q9Y6E0)
Chain of STK24 (human) (Q9Y6E0 whole entry, looked up): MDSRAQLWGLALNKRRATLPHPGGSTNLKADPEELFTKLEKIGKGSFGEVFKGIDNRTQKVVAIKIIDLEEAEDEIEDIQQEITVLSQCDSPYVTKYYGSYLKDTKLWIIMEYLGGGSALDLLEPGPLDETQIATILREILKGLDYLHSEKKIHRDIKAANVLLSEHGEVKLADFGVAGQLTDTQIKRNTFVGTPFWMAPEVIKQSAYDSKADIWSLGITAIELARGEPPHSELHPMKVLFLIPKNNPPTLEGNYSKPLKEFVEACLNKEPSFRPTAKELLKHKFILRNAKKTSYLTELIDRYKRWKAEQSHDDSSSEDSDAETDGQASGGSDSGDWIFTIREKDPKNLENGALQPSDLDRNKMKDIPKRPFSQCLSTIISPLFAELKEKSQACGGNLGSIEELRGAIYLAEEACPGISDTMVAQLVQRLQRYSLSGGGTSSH

MAPK12 (human) = MAPK12 (human) (UniProt P53778)
Chain of MAPK12 (human) (P53778 whole entry, looked up): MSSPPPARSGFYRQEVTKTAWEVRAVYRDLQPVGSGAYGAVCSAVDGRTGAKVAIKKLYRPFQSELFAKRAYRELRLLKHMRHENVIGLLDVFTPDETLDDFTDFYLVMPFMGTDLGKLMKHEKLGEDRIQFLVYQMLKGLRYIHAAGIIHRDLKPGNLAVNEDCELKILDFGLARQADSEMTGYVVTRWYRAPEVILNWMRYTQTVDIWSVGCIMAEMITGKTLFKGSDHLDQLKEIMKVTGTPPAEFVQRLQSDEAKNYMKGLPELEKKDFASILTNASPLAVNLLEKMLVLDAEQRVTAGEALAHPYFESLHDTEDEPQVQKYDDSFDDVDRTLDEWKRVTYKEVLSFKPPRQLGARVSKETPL

FER (human) = FER (human) (UniProt P16591)
Chain of FER (human) (P16591 whole entry, looked up): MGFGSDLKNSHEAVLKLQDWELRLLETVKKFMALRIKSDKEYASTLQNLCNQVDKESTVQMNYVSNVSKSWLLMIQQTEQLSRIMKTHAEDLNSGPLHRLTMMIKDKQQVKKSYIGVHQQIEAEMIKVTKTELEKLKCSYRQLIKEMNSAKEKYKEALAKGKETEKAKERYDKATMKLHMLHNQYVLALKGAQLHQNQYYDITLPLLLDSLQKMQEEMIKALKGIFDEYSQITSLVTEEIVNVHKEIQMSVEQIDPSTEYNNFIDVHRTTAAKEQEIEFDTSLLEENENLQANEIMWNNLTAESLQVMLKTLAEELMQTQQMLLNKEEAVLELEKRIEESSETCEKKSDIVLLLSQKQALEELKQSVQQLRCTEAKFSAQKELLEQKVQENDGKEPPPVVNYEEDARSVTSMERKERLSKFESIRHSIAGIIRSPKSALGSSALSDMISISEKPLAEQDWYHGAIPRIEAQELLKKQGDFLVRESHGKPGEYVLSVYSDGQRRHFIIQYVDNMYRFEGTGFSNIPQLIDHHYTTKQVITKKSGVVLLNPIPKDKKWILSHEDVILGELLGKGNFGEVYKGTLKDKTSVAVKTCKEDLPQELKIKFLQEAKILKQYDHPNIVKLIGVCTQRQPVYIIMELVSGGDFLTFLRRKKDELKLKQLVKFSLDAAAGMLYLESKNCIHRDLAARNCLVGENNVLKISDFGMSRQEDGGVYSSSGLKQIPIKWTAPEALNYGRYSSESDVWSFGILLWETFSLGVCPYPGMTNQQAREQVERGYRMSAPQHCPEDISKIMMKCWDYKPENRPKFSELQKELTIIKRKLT

MAPKAPK5 (human) = MAPKAPK5 (human) (UniProt Q8IW41)
FYN (human) = FYN (human) (UniProt P06241)
EPHA8 (human) = EPHA8 (human) (UniProt P29322)
TSSK1B (human) = TSSK1B (human) (UniProt Q9BXA7)
Chain of TSSK1B (human) (Q9BXA7 whole entry, looked up): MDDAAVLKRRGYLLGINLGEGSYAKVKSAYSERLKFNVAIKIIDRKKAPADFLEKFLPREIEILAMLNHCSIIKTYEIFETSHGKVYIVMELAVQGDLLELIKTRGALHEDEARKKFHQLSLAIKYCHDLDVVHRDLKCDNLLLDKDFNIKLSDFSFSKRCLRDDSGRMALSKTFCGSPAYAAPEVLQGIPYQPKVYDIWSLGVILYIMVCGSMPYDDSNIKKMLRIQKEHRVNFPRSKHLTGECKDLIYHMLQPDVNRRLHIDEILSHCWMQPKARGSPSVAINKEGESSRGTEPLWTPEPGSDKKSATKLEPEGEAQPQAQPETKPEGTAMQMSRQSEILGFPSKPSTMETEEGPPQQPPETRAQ

MAP3K3 (human) = MAP3K3 (human) (UniProt Q99759)
IKBKB (human) = IKBKB (human) (UniProt O14920)
ZAP70 (human) = ZAP70 (human) (UniProt P43403)
WEE1 (human) = WEE1 (human) (UniProt P30291)
TTK (human) = TTK (human) (UniProt P33981)
MAPK14 (human) = MAPK14 (human) (UniProt Q16539)
FGFR3 (human) = FGFR3 (human) (UniProt P22607)
Chain of FGFR3 (human) (P22607 whole entry, looked up): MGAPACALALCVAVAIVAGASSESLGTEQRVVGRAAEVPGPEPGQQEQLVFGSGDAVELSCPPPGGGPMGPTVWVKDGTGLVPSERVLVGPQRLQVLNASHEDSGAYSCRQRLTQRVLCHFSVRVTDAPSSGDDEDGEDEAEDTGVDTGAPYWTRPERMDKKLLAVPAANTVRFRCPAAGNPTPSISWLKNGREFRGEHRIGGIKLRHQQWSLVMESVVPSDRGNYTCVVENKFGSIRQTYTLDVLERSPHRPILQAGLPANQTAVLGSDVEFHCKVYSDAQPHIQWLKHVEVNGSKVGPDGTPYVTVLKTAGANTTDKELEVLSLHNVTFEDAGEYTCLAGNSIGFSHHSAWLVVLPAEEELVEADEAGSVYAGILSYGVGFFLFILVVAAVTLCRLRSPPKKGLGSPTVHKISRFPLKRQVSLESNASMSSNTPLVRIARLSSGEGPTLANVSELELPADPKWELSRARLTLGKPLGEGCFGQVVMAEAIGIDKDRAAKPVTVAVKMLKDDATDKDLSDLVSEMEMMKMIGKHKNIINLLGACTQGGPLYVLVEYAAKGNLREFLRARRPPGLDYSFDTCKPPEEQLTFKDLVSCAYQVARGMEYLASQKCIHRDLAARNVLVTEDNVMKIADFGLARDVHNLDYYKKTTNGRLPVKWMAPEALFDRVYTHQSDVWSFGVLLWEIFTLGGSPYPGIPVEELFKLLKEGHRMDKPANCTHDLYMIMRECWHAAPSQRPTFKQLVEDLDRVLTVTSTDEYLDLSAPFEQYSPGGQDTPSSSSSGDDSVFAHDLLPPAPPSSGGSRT

CAMK2D (human) = CAMK2D (human) (UniProt Q13557)
SGK3 (human) = SGK3 (human) (UniProt Q96BR1)
STK16 (human) = STK16 (human) (UniProt O75716)
CAMK2B (human) = CAMK2B (human) (UniProt Q13554)
PLK3 (human) = PLK3 (human) (UniProt Q9H4B4)
MAP4K4 (human) = MAP4K4 (human) (UniProt O95819)
RAF1 (human) = RAF1 (human) (UniProt P04049)
Chain of RAF1 (human) (P04049 whole entry, looked up): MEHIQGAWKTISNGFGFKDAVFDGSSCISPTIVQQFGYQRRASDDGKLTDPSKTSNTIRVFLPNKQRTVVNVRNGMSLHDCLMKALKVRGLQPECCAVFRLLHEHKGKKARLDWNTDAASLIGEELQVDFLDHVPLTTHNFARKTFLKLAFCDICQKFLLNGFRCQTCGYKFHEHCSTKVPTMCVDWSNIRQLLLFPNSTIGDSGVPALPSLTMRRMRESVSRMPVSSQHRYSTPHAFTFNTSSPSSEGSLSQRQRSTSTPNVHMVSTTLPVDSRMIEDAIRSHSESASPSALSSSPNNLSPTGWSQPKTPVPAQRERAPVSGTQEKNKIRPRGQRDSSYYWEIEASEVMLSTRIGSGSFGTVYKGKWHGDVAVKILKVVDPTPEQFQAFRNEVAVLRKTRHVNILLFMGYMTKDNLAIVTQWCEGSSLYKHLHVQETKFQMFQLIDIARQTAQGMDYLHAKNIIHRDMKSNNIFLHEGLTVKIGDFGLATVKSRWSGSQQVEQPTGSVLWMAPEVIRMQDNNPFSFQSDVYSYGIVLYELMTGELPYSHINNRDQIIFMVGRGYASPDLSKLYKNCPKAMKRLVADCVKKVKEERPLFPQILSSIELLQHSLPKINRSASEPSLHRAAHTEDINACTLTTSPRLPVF

TBK1 (human) = TBK1 (human) (UniProt Q9UHD2)
CSNK1G1 (human) = CSNK1G1 (human) (UniProt Q9HCP0)
CAMK1D (human) = CAMK1D (human) (UniProt Q8IU85)
CDK2 CCNA2 (human) = CDK2 CCNA2 (human) (UniProt P24941+P20248)
CDK2 CCNE1 (human) = CDK2 CCNE1 (human) (UniProt P24941+P24864)
CSNK1G3 (human) = CSNK1G3 (human) (UniProt Q9Y6M4)
CAMK1G (human) = CAMK1G (human) (UniProt Q96NX5)
FES (human) = FES (human) (UniProt P07332)

`CCN(CC)CCNC(=O)c1c(C)[nH]c(/C=C2\C(=O)Nc3ccc(F)cc32)c1C` was tested, and the residual activity (LYN (human)) was 23% and 34.6%, the residual activity (EPHA6 (human)) was 29.5% and the residual activity (PDGFRB (human)) was 17.6%. It also gave a residual activity (MYLK (human)) of 25.6%, a residual activity (EPHB3 (human)) of 77.4% and a residual activity (STK4 (human)) of 10.7%. For the same molecule, the residual activity (RPS6KB2 (human)) was 113%, the residual activity (CSNK1D (human)) was 31.8% and the residual activity (CDC42BPB (human)) was 101%. It also gave a residual activity (EPHA5 (human)) of 87.6%, a residual activity (IGF1R (human)) of 62.6% and a residual activity (HIPK2 (human)) of 41.3%. It also gave a residual activity (NTRK1 (human)) of 11.5%, a residual activity (STK24 (human)) of 39.7% and a residual activity (MAPK12 (human)) of 95.8%. It also gave a residual activity (FER (human)) of 31.6%, a residual activity (MAPKAPK5 (human)) of 82.7% and a residual activity (FYN (human)) of 71.3%. For the same molecule, the residual activity (EPHA8 (human)) was 92.1%, the residual activity (TSSK1B (human)) was 20.7% and the residual activity (MAP3K3 (human)) was 42%. The residual activity (IKBKB (human)) was 81%, the residual activity (ZAP70 (human)) was 97.2% and the residual activity (WEE1 (human)) was 91.8%. It also gave a residual activity (TTK (human)) of 68%, a residual activity (MAPK14 (human)) of 105% and a residual activity (FGFR3 (human)) of 39.7%. The residual activity (CAMK2D (human)) was 11.6%, the residual activity (SGK3 (human)) was 101% and the residual activity (STK16 (human)) was 55.7%. For the same molecule, the residual activity (CAMK2B (human)) was 46.7%, the residual activity (PLK3 (human)) was 96.5% and the residual activity (MAP4K4 (human)) was 12.4%. It also gave a residual activity (RAF1 (human)) of 110%.

In the case of `Cc1ccc(Nc2nccc(N(C)c3ccc4c(C)n(C)nc4c3)n2)cc1S(N)(=O)=O`, the residual activity (LYN (human)) is reported as 52.1% and 58.9%, the residual activity (EPHA6 (human)) is reported as 80% and the residual activity (PDGFRB (human)) is reported as 40.4%. It also gave a residual activity (MYLK (human)) of 93%, a residual activity (TBK1 (human)) of 99.5% and a residual activity (EPHB3 (human)) of 71.7%. The residual activity (STK4 (human)) was 98.4%, the residual activity (RPS6KB2 (human)) was 103% and the residual activity (CSNK1D (human)) was 95.4%. The residual activity (CDC42BPB (human)) was 99.9%, the residual activity (EPHA5 (human)) was 99.7% and the residual activity (HIPK2 (human)) was 105%. For the same molecule, the residual activity (NTRK1 (human)) was 91.8%, the residual activity (STK24 (human)) was 106% and the residual activity (CSNK1G1 (human)) was 100%. It also gave a residual activity (MAPK12 (human)) of 93.7%, a residual activity (FER (human)) of 81.3% and a residual activity (CAMK1D (human)) of 91.5%. The residual activity (MAPKAPK5 (human)) was 100%, the residual activity (EPHA8 (human)) was 90% and the residual activity (TSSK1B (human)) was 99%. For the same molecule, the residual activity (MAP3K3 (human)) was 112%, the residual activity (CDK2 CCNA2 (human)) was 96.1% and the residual activity (CDK2 CCNE1 (human)) was 96.4%. The residual activity (IKBKB (human)) was 86.9%, the residual activity (ZAP70 (human)) was 92.6% and the residual activity (WEE1 (human)) was 95.3%. For the same molecule, the residual activity (TTK (human)) was 73.4%, the residual activity (MAPK14 (human)) was 91.2% and the residual activity (FGFR3 (human)) was 39.3%. It also gave a residual activity (CSNK1G3 (human)) of 97.1%, a residual activity (CAMK2D (human)) of 99.4% and a residual activity (SGK3 (human)) of 97.5%. It also gave a residual activity (STK16 (human)) of 43.8%, a residual activity (CAMK2B (human)) of 95.5% and a residual activity (PLK3 (human)) of 101%. For the same molecule, the residual activity (MAP4K4 (human)) was 77.4% and the residual activity (RAF1 (human)) was 9.43%.

With `CC(C)N(CCC(=O)c1ccc2ccccc2c1)Cc1ccccc1` the residual activity (LYN (human)) was 89.3% and 98.8%, the residual activity (EPHA6 (human)) was 93.3% and the residual activity (MYLK (human)) was 95.6%. The residual activity (TBK1 (human)) was 92.4%, the residual activity (EPHB3 (human)) was 88.5% and the residual activity (STK4 (human)) was 92.5%. For the same molecule, the residual activity (CAMK1G (human)) was 95.1%, the residual activity (RPS6KB2 (human)) was 94.3% and the residual activity (CSNK1D (human)) was 97.6%. It also gave a residual activity (CDC42BPB (human)) of 95%, a residual activity (EPHA5 (human)) of 118% and a residual activity (IGF1R (human)) of 107%. The residual activity (HIPK2 (human)) was 107%, the residual activity (NTRK1 (human)) was 94.8% and the residual activity (STK24 (human)) was 96.6%. The residual activity (CSNK1G1 (human)) was 101%, the residual activity (MAPK12 (human)) was 96.2% and the residual activity (FER (human)) was 105%. For the same molecule, the residual activity (MAPKAPK5 (human)) was 96.6%, the residual activity (FES (human)) was 92.7% and the residual activity (FYN (human)) was 95.3%. The residual activity (EPHA8 (human)) was 95.9%, the residual activity (TSSK1B (human)) was 100% and the residual activity (MAP3K3 (human)) was 102%. For the same molecule, the residual activity (CDK2 CCNA2 (human)) was 109%, the residual activity (CDK2 CCNE1 (human)) was 89.2% and the residual activity (IKBKB (human)) was 101%. The residual activity (ZAP70 (human)) was 93.7%, the residual activity (WEE1 (human)) was 92.1% and the residual activity (TTK (human)) was 96%. For the same molecule, the residual activity (MAPK14 (human)) was 94.4%, the residual activity (FGFR3 (human)) was 99.8% and the residual activity (CSNK1G3 (human)) was 99%. For the same molecule, the residual activity (CAMK2D (human)) was 90%, the residual activity (SGK3 (human)) was 106% and the residual activity (STK16 (human)) was 91.6%. For the same molecule, the residual activity (CAMK2B (human)) was 96.6%, the residual activity (PLK3 (human)) was 105% and the residual activity (MAP4K4 (human)) was 96.7%. For the same molecule, the residual activity (RAF1 (human)) was 87.3%.
